The record followed here is patent US20140303144A1, “COMPOUNDS AND METHODS OF TREATING HYPERTENSION” (Medivation Technologies, Inc., priority 2011, published 2014).

Experiment [1] has as its target T1, human recombinant adrenergic α2B receptor (Homo sapiens, UniProt P18089).
T1 construct: expressed in transfected cells; host or cells: CHO-K1 cells
T1 sequence (P18089 1-450): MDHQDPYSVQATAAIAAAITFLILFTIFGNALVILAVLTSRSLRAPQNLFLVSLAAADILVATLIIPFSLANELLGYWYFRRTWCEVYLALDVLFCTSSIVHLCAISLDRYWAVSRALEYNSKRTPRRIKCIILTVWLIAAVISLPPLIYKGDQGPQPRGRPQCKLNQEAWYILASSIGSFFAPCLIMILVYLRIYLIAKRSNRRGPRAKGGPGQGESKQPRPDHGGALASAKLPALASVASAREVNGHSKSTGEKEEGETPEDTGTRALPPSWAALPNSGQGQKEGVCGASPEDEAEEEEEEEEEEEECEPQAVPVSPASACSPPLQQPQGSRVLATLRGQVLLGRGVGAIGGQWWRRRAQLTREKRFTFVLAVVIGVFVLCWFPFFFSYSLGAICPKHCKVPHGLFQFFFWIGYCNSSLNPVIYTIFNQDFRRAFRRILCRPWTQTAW
As to the kind of experiment: Adrenergic α2B radioligand binding assay ([3H]Rauwolscine). Particulars: 0.1 μM compound; read-out: Percentage inhibition of ligand binding, Adrenergic α2B. How it is done: To evaluate in radioligand binding assays the activity of compounds of the invention, human recombinant adrenergic α2B receptor expressed in Chinese hamster ovary (CHO) K1 cells (Uhlen, S. et al, Eur. J. Pharmacol. 343(1):93, 1998) in a modified Tris-HCl buffer (50 mM Tris-HCl, pH 7.4, 12.5 mM MgCl2, 1 mM EDTA, 0.2% BSA) was used. Compounds of the invention were incubated with 2.5 nM [3H]Rauwolscine for 60 min at 25° C. Non-specific binding was estimated in the presence of 10 μM Prazosin. Receptor proteins were filtered and washed, the filters were then counted to determine [3H]Rauwolscine specifically bound. Compounds were screened at 1 μM or lower, using 1% DMSO as vehicle. Compounds of the invention were tested in this biochemical assay and percent inhibition of specific binding was determined. Biochemical assay results are presented as the percent inhibition of specific binding in Tables B1A-B1D.

The target in experiment [2] is T2, human recombinant adrenergic α2A receptor (Homo sapiens, UniProt P08913).
T2 construct: expressed in transfected cells; host or cells: insect Sf9 cells
T2 sequence (P08913 1-465): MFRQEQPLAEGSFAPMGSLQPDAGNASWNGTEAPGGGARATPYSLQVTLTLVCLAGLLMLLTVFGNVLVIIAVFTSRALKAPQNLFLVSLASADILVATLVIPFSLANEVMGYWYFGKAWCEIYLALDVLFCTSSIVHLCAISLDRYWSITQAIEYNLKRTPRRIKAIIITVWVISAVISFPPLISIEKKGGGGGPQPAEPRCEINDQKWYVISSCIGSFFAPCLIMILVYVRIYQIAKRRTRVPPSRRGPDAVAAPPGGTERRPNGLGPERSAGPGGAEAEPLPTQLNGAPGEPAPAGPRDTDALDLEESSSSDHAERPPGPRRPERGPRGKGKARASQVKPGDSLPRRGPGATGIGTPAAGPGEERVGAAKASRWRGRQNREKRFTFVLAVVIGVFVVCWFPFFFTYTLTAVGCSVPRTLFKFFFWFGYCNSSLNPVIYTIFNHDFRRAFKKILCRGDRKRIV
Briefly: Adrenergic α2A radioligand binding assay ([3H]MK-912). Particulars: 0.1 μM compound; read-out: Percentage inhibition of ligand binding, Adrenergic α2A. How it is done:
To evaluate in radioligand binding assays the activity of compounds of the invention, human recombinant adrenergic α2A receptor expressed in insect Sf9 cells (Uhlen, S. et al, J. Pharmacol. Exp. Ther. 271:1558, 1994) in a modified Tris-HCl buffer (50 mM Tris-HCl, pH 7.4, 12.5 mM MgCl2, 2 mM EDTA) was used. Compounds of invention were incubated with 1 nM [^3H]MK-912 for 60 min at 25° C. MK912 was (2S-trans)-1,3,4,5′,6,6′,7,12b-octahydro-1′,3′-dimethyl-spiro[2H-benzofuro[2,3-a]quinolizine-2,4′(1′H)-pyrimidin]-2′(3′H)-one hydrochloride Non-specific binding was estimated in the presence of 10 μM WB-4101 (2-(2,6-Dimethoxyphenoxyethyl)aminomethyl-1,4-benzodioxane hydrochloride). Receptor proteins were filtered and washed, the filters were then counted to determine [^3H]MK-912 specifically bound. Compounds were screened at 1 μM or lower, using 1% DMSO as vehicle. Compounds of the invention were tested in this biochemical assay and percent inhibition of specific binding was determined. Biochemical assay results are presented as the percent inhibition of specific binding in Tables B1A-B1D.

In experiment [3] the target is T3, human recombinant adrenergic α1D receptor (Homo sapiens, UniProt P25100).
T3 construct: expressed in transfected cells; host or cells: HEK-293 cells
T3 sequence (P25100 1-572): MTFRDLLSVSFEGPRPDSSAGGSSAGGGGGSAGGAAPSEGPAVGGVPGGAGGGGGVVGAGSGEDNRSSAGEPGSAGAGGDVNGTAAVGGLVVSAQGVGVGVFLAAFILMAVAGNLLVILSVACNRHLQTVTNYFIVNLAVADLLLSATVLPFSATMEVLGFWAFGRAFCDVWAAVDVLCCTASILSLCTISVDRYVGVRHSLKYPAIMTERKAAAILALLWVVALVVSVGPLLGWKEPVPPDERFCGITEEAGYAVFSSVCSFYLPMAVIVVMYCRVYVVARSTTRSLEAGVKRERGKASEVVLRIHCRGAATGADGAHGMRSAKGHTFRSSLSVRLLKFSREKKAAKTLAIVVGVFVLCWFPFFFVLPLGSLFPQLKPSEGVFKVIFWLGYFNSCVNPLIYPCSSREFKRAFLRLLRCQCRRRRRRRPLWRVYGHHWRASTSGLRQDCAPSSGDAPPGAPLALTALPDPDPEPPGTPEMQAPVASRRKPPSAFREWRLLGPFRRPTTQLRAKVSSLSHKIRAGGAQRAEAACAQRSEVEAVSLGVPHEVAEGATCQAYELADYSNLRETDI
As to the kind of experiment: Adrenergic α1D radioligand binding assay ([3H]Prazosin). The settings on record: 0.1 μM compound; read-out: Percentage inhibition of ligand binding, Adrenergic α1D. How it is done: To evaluate in radioligand binding assays the activity of compounds of the invention, human recombinant adrenergic α1D receptor expressed in human embryonic kidney (HEK-293) cells (Kenny, B. et al, Br. J. Pharmacol. 115(6):981, 1995) in a 50 mM Tris-HCl buffer, pH 7.4, was used. Compounds were incubated with 0.6 nM [3H]Prazosin for 60 min at 25° C. Non-specific binding was estimated in the presence of 10 μM phentolamine. Receptor proteins were filtered and washed, the filters were then counted to determine [3H]Prazosin specifically bound. Compounds were screened at 1 μM or lower, using 1% DMSO as vehicle. Biochemical assay results are presented as the percent inhibition of specific binding in Tables B1A-B1D.

Each structure is given as a SMILES string.

For `C/C(=C\c1cc(C)cc2c3c(n(C)c12)CCN(C)C3)c1ccncc1` [A11], the figures for the inhibition at 0.1 µM in experiment [1], in experiment [2] and in experiment [3] were 14%, 4% and -1%, respectively.
Turning to `Cc1cc(CCc2ccc(C)nc2)c2c(c1)c1c(n2C)CCN(C)C1` [A13], the figures for the inhibition at 0.1 µM in experiment [1], in experiment [2] and in experiment [3] were 5%, -12% and 8%, respectively.
With `Cc1cc(/C=C/c2ccc(C)nc2)c2c(c1)c1c(n2C)CCN(C)C1` [A14], the inhibition at 0.1 µM in experiment [1] was -3%; in experiment [2] it was 12%; in experiment [3] it was -9%.
`Cc1cc2c3c(c1)c1c(n3CC(C)(c3ccc(C)nc3)OC(C)C2)CCN(C)C1` (stereo not drawn) [B160]: the inhibition at 0.1 µM in experiment [1] was -8%; in experiment [2] it was -1%; in experiment [3], 15%.
For `Cc1cc2c3c(c1)c1c(n3CC(C)(c3ccncc3)OC(C)C2)CCN(C)C1` (stereo not drawn) [B165] the same measures were 43%, 40% and 0%.
Take `Cc1cc(C#Cc2cccs2)c2[nH]c3c(c2c1)CN(C)CC3` [A8]: the inhibition at 0.1 µM is -1% in experiment [1], 20% in experiment [2] and 3% in experiment [3].
For `C/C(=C\c1cc(C)cc2c3c(n(C)c12)CCN(C)C3)c1ccc(C)nc1` [A15] the same measures were 21%, 20% and 5%.
On to `Cc1cc(-c2ccncc2)c2c(c1)c1c(n2C)CCN(C)C1` [A9], for which the results for the inhibition at 0.1 µM in experiment [1], in experiment [2] and in experiment [3] were -7%, 0% and -1%, respectively.
As to `Cc1cc(C#Cc2ccc(C)nc2)c2c(c1)c1c(n2C)CCN(C)C1` [A12], the inhibition at 0.1 µM is 6% in experiment [1], -4% in experiment [2] and 38% in experiment [3].
With `Cc1cc(C#Cc2ccncc2)c2c(c1)c1c(n2C)CCN(C)C1` [A17], the inhibition at 0.1 µM in experiment [1] is 21%; in experiment [2], 14%; in experiment [3], -5%.
Take `Cc1cc(C#Cc2nccs2)c2[nH]c3c(c2c1)CN(C)CC3` [A16]: the inhibition at 0.1 µM in experiment [1] was 17%; in experiment [2], 31%; in experiment [3] it was -2%.
For `Cc1ccc(C#Cc2cc(Cl)cc3c4c(n(C)c23)CCN(C)C4)cn1` [A18], the inhibition at 0.1 µM stood at 38% in experiment [1], 6% in experiment [2] and 34% in experiment [3].
On to `Cc1cc2c3c(c1)c1c(n3C[C@@](C)(c3ccncc3)O[C@H]2C)CCN(C)C1` [B162], for which the inhibition at 0.1 µM in experiment [1] is 27%; in experiment [2], 14%; in experiment [3] it was -2%.
In the case of `Cc1ccc2c(c1)c1c3n2CC(c2ccncc2)=CCC3(C)CN(C)C1` (stereo not drawn) [D11], the inhibition at 0.1 µM in experiment [1] is 30%; in experiment [2], 8%; in experiment [3], -5%.
Turning to `C#Cc1cc(C)cc2c3c(n(C)c12)CCN(C)C3` [A10], the inhibition at 0.1 µM was 8% in experiment [1], 23% in experiment [2] and 26% in experiment [3].
For `Cc1cc(-c2ccc(F)cc2)c2c(c1)c1c(n2C)CCN(C)C1` [A7] the same measures were -9%, 10% and 4%.
As to `Cc1cc2c3c(c1)c1c(n3C[C@](C)(c3ccncc3)O[C@H]2C)CCN(C)C1` [B163], the inhibition at 0.1 µM in experiment [1] is 4%; in experiment [2], 5%; in experiment [3] it was 15%.
Turning to `Cc1cc2c3c(c1)c1c(n3C(c3ccccc3)C2)CCN(C)C1` (stereo not drawn) [B12], the results for the inhibition at 0.1 µM in experiment [1], in experiment [2] and in experiment [3] were 72%, 75% and 28%, respectively.
For the compound `Cc1ccc2c(c1)c1c3n2C(c2ccccc2)CCC3(C)CN(C)C1` (stereo not drawn) [D12], the inhibition at 0.1 µM in experiment [1] was -7%; in experiment [2] it was 5%; in experiment [3] it was -3%.
`Cc1ccc2c(c1)c1c3n2C(c2ccccc2)=CCC3(C)CN(C)C1` (stereo not drawn) [D10]: the inhibition at 0.1 µM in experiment [1] is -6%; in experiment [2] it was -1%; in experiment [3], -6%.
